Experimental data reported in the NIST ThermoML archive (doi:10.1007/s10765-006-0110-x).

Settings: Liquid, Pulse-echo method

COCCOCCOC [2,5,8-trioxanonane]
speed of sound [m/s]
Settings	293.15 K	303.15 K	313.15 K	323.15 K	333.15 K	343.15 K	353.15 K
100 kPa	1298.9	1259.3	1219.9	1180.9	1142.4	1104.2	1066.6
10000 kPa	1344.9	1306.7	1269.5	1232.5	1196.4	1160.8	1125.7
20000 kPa	1386.5	1350.6	1315.4	1280.2	1246	1212	1179.3
30000 kPa	1426.6	1392	1357.6	1324.4	1291.4	1259.5	1228.1
40000 kPa	1463.9	1430.4	1397.8	1365.5	1333.7	1303.1	1273.4
50000 kPa	1499.2	1466.9	1435.3	1404	1373.6	1343.9	1314.9
60000 kPa	1532.5	1501.5	1470.5	1440.6	1410.9	1382.1	1354.4
70000 kPa	1565.1	1534.3	1504.4	1475.2	1446.2	1418.6	1391.3
80000 kPa	1595.5	1565.8	1536.7	1508.2	1480.1	1452.9	1426.7
90000 kPa	1624.9	1595.9	1567.6	1539.8	1512.3	1485.9	1460.4
100000 kPa	1653.4	1625.1	1597	1569.9	1543.1	1517.4	1492.3

COCCOC [1,2-dimethoxyethane]
speed of sound [m/s]
Settings	293.15 K	303.15 K	313.15 K	323.15 K	333.15 K	343.15 K	353.15 K
100 kPa	1188.5	1144.8	1101.9	1059.4	1016.5	974.9	932.8
10000 kPa	1242	1201.1	1161.1	1122.4	1083.1	1044.7	1005.8
20000 kPa	1292.4	1252.2	1215.2	1178.7	1142.7	1107	1070
30000 kPa	1336.4	1299.6	1263.9	1229.3	1195.2	1161.4	1127.3
40000 kPa	1378.8	1343.2	1309.2	1275.9	1243.6	1211.6	1178.9
50000 kPa	1418.2	1384.1	1350.7	1319.6	1288.4	1257.6	1226.3
60000 kPa	1455.6	1422.5	1390.5	1361.5	1330.1	1300.5	1270.4
70000 kPa	1490.4	1458	1428.3	1398.6	1369.3	1340.5	1311.3
80000 kPa	1523.9	1492.6	1463.3	1434.7	1406.4	1378.6	1350.2
90000 kPa	1555.7	1525.7	1497	1468.9	1441.3	1414.5	1387
100000 kPa	1586.1	1557.2	1528.8	1501.5	1474.8	1448.7	1421.7
